Measurements as given in patent US8536202B2, “Triazole-substituted anthranilamides as pesticides” (Bayer Cropscience AG, priority 2010, dated 2013).
Where two headings read alike, the source gives them in different places.

Columns and labels:
[1] = test system: green peach aphid (Myzus persicae); experiment: Myzus test (MYZUPE spray treatment), Use Example 4; type: in vivo; conditions: 144 h, 100 g/ha, after 6 days, read-out: activity in %
Method: Solvents: 78 parts by weight of acetone • • 1.5 parts by weight of dimethylformamide
Emulsifier: 0.5 part by weight of alkylaryl polyglycol ether
An appropriate preparation of active compound is prepared by mixing 1 part by weight of active compound with the stated amounts of solvents and emulsifier and diluting the concentrate with emulsifier-containing water to the desired concentration.
Leaf discs of Chinese cabbage (Brassica pekinensis) infested by all stages of the green peach aphid (Myzus persicae) are sprayed with a preparation of active compound at the desired concentration.
After 6 days, the activity in % is ascertained. Here, 100% means that all of the aphids have been killed; 0% means that no aphids have been killed.

[2] = test system: larvae of the mustard beetle (Phaedon cochleariae); experiment: Phaedon test (PHAECO spray treatment); type: in vivo; conditions: 168 h, 100 g/ha, after 7 days, read-out: activity in %
In short: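 Mortality of mustard beetle larvae, expressed as percent killed (100% all, 0% none), assessed 7 days after spraying. Spray liquor made from compound in acetone plus dimethylformamide with alkylaryl polyglycol ether, diluted in emulsifier-containing water to the desired concentration.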

[3] = test system: caterpillars of the armyworm (Spodoptera frugiperda); experiment: Spodoptera frugiperda test (SPODFR spray treatment); type: in vivo; conditions: 168 h, after 7 days; for pest or weed control at 100 g/ha: read-out: activity in %
In short: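 Percent caterpillar mortality read 7 days after infestation (0% none killed, 100% all killed). Treatment was a spray of the acetone/DMF/emulsifier formulation, water-diluted to test concentration, onto Zea mays leaf discs, allowed to dry before larvae were added.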

[4] = log P determination by HPLC on reversed-phase columns (EEC Directive 79/831 Annex V.A8); type: physicochemical; conditions: pH 2.7
In short: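 Calibration used unbranched alkan-2-ones of 3 to 16 carbons with known log P, values interpolated linearly from retention times between neighbouring standards. Acidic-range LC-MS run at pH 2.7, eluents aqueous and acetonitrile formic acid 0.1%, linear gradient 10% to 95% acetonitrile.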

[5] = reversed-phase C18 HPLC column, HPLC on reversed-phase columns (C 18), EEC Directive 79/831 Annex V.A8, read-out: logP

Structure (SMILES): CNC(=O)c1cc(C#N)cc(C)c1NC(=O)c1cc(Cn2cc(C(F)(C(F)(F)F)C(F)(F)F)nn2)nn1-c1ncccc1Cl [Example 217]
- pest or weed control at 100 g/ha [1]: 100%
- pest or weed control at 100 g/ha [2]: 100%
- pest or weed control at 100 g/ha [3]: 100%
- chromatographic logP [4]: 3.03

Structure (SMILES): Cc1cc(C#N)cc(C(=O)NC(C)C)c1NC(=O)c1cc(Cn2cc(C(F)(C(F)(F)F)C(F)(F)F)nn2)nn1-c1ncccc1Cl [Example 219]
- pest or weed control at 100 g/ha [1]: 80%
- pest or weed control at 100 g/ha [2]: 100%
- pest or weed control at 100 g/ha [3]: 100%
- chromatographic logP [4, 5]: 3.44

Structure (SMILES): Cc1cc(C#N)cc(C(=O)NC(C)(C)C)c1NC(=O)c1cc(Cn2cc(C(F)(C(F)(F)F)C(F)(F)F)nn2)nn1-c1ncccc1Cl [Example 220]
- pest or weed control at 100 g/ha [1]: 100%
- pest or weed control at 100 g/ha [2]: 100%
- pest or weed control at 20 g/ha [3]: 100%
- chromatographic logP [4, 5]: 3.75

Structure (SMILES): Cc1cc(C#N)cc(C(=O)NCC2CC2)c1NC(=O)c1cc(Cn2cc(C(F)(C(F)(F)F)C(F)(F)F)nn2)nn1-c1ncccc1Cl [Example 221]
- pest or weed control at 100 g/ha [1]: 80%
- pest or weed control at 100 g/ha [2]: 100%
- pest or weed control at 100 g/ha [3]: 100%
- chromatographic logP [4, 5]: 3.52

Structure (SMILES): CSC[C@H](C)NC(=O)c1cc(C#N)cc(C)c1NC(=O)c1cc(Cn2cc(C(F)(C(F)(F)F)C(F)(F)F)nn2)nn1-c1ncccc1Cl [Example 222]
- pest or weed control at 100 g/ha [1]: 100%
- pest or weed control at 100 g/ha [2]: 100%
- pest or weed control at 100 g/ha [3]: 100%
- chromatographic logP [4, 5]: 3.63

Structure (SMILES): Cc1cc(C#N)cc(C(N)=O)c1NC(=O)c1cc(Cn2cc(C(F)(C(F)(F)F)C(F)(F)F)nn2)nn1-c1ncccc1Cl [Example 223]
- pest or weed control at 100 g/ha [1]: 100%
- pest or weed control at 100 g/ha [2]: 100%
- pest or weed control at 20 g/ha [3]: 100%
- chromatographic logP [4]: 2.84

Structure (SMILES): Cc1cc(C#N)cc(C(=O)NC2CC2)c1NC(=O)c1cc(Cn2cc(C(F)(C(F)(F)F)C(F)(F)F)nn2)nn1-c1ncccc1Cl [Example 224]
- pest or weed control at 100 g/ha [1]: 80%
- pest or weed control at 100 g/ha [2]: 100%
- pest or weed control at 100 g/ha [3]: 100%
- chromatographic logP [4, 5]: 3.24

Structure (SMILES): CNC(=O)c1cc(Cl)cc(C)c1NC(=O)c1cc(Cn2cc(C(F)(C(F)(F)F)C(F)(F)F)nn2)nn1-c1ncccc1Cl [Example 225]
- pest or weed control at 100 g/ha [1]: 100%
- pest or weed control at 100 g/ha [2]: 100%
- pest or weed control at 20 g/ha [3]: 100%
- chromatographic logP [4]: 3.36

Structure (SMILES): Cc1cc(Cl)cc(C(=O)NC(C)(C)C)c1NC(=O)c1cc(Cn2cc(C(F)(C(F)(F)F)C(F)(F)F)nn2)nn1-c1ncccc1Cl [Example 228]
- pest or weed control at 100 g/ha [1]: 80%
- pest or weed control at 100 g/ha [2]: 100%
- pest or weed control at 100 g/ha [3]: 100%
- chromatographic logP [4, 5]: 4.19

Structure (SMILES): CSC[C@H](C)NC(=O)c1cc(Cl)cc(C)c1NC(=O)c1cc(Cn2cc(C(F)(C(F)(F)F)C(F)(F)F)nn2)nn1-c1ncccc1Cl [Example 230]
- pest or weed control at 100 g/ha [1]: 80%
- pest or weed control at 100 g/ha [2]: 100%
- pest or weed control at 100 g/ha [3]: 100%
- chromatographic logP [4, 5]: 4.04

Structure (SMILES): CSC[C@H](C)NC(=O)c1cc(I)cc(C)c1NC(=O)c1cc(Cn2cc(C(F)(C(F)(F)F)C(F)(F)F)nn2)nn1-c1ncccc1Cl [Example 238]
- pest or weed control at 100 g/ha [1]: 100%
- pest or weed control at 100 g/ha [2]: 100%
- pest or weed control at 100 g/ha [3]: 100%
- chromatographic logP [4, 5]: 4.26

Structure (SMILES): CSC[C@H](C)NC(=O)c1cc(Cl)cc(Cl)c1NC(=O)c1cc(Cn2cc(C(F)(C(F)(F)F)C(F)(F)F)nn2)nn1-c1ncccc1Cl [Example 246]
- pest or weed control at 100 g/ha [1]: 80%
- pest or weed control at 100 g/ha [2]: 100%
- pest or weed control at 100 g/ha [3]: 100%
- chromatographic logP [4, 5]: 4.02

Structure (SMILES): CNC(=O)c1cc(C#N)cc(C)c1NC(=O)c1cc(Cn2ncc(C(F)(C(F)(F)F)C(F)(F)F)n2)nn1-c1ncccc1Cl [Example 249]
- pest or weed control at 100 g/ha [1]: 80%
- pest or weed control at 100 g/ha [2]: 100%
- pest or weed control at 100 g/ha [3]: 100%
- chromatographic logP [4]: 3.39

Structure (SMILES): CSC[C@H](C)NC(=O)c1cc(C#N)cc(C)c1NC(=O)c1cc(Cn2ncc(C(F)(C(F)(F)F)C(F)(F)F)n2)nn1-c1ncccc1Cl [Example 254]
- pest or weed control at 100 g/ha [1]: 80%
- pest or weed control at 100 g/ha [2]: 100%
- pest or weed control at 100 g/ha [3]: 100%
- chromatographic logP [4, 5]: 4.06

Structure (SMILES): Cc1cc(C#N)cc(C(N)=O)c1NC(=O)c1cc(Cn2ncc(C(F)(C(F)(F)F)C(F)(F)F)n2)nn1-c1ncccc1Cl [Example 255]
- pest or weed control at 100 g/ha [1]: 80%
- pest or weed control at 100 g/ha [2]: 100%
- pest or weed control at 100 g/ha [3]: 100%
- chromatographic logP [4]: 3.19

Structure (SMILES): CSC[C@H](C)NC(=O)c1cc(Cl)cc(C)c1NC(=O)c1cc(Cn2ncc(C(F)(C(F)(F)F)C(F)(F)F)n2)nn1-c1ncccc1Cl [Example 262]
- pest or weed control at 100 g/ha [1]: 80%
- pest or weed control at 100 g/ha [2]: 100%
- pest or weed control at 100 g/ha [3]: 100%
- chromatographic logP [4, 5]: 4.45
